The values below come from paper PMC12737022, “Evaluations of Sex Differences in Dosimetry in Rats Following Perfluorohexanesulfonamide (PFHxSA) Oral Exposure” (Toxics, 2025).

Converted amounts (≈) assume the structure as drawn. “And” between values parts separate entries of the source, which are not always exact repeats. Equal entries are not always repeated. Where only a bound is given, the exact number is not on record here.

Data set [1] is described as follows: Solubility and stability of PFHxSA corn oil dosing solutions. The format is physicochemical. The following applies: for Replicate percent recoveries, Day 5 / Replicate percent recoveries, Day 7 / Replicate percent recoveries, Day 14: relative to Day 0. As for the experimental part: The stability of PFHxSA corn oil dosing solutions was also evaluated up to 14 days. PFHxSA solutions were prepared using the same lot number of the chemical as was used in Mutlu et al.. Solutions were prepared under an inert atmosphere at a 20,000 µg/mL (20 mg/mL) high-dose solution and a 2 µg/mL ([…]) low-dose solution to mimic the range of concentrations of the dosing formulations used for the in vivo study. Each batch included an MB and an LCS prepared from blank corn oil as QC. The solutions were split into two aliquots each. One aliquot was stored at 4 °C; the other aliquot was stored at room temperature, with both protected from light. The stability samples were analyzed in triplicate on Days 0, 5, 7, and 14 using the same extraction method and LC/MS/MS conditions outlined in SI Texts S2 and S3, respectively. Stability was assessed by using mean peak areas to calculate the percent recovery for each day of analysis relative to Day 0. Information on percent recovery calculation and additional experimental details concerning the stability study may be found in SI Text S2.
Text S1 Solvents and Additives for Analytical Chemistry
Solvents used for sample preparation and mobile phases include methanol (MeOH), water (H2O), and acetonitrile (ACN), which were LC/MS-grade and purchased from Honeywell Burdick & Jackson (Charlotte, NC, USA). Ammonium formate (BioUltra purity) and ammonium acetate (99% pure) were used as mobile phase additives and obtained from Millipore Sigma (St. Louis, MO, USA). Formic acid (FA; 97.5% pure) was also used as an additive; it was purchased from Honeywell Fluka. Detailed information for chemicals used for each analysis may be found in Table S1.
Text S2 Dosing-Solution Determination and Stability Assessment
Dosing solutions were extracted by liquid–liquid extraction using 50 uL aliquots of the dosing solutions and 950 uL of 0.1M formic acid in acetonitrile, vortexing the mixture at 2000 rpm, and centrifuging at 5400 × g for 10 minutes. The supernatants were drawn off and added to Waters Oasis Prime HLB 3cc 60mg (Waters, Milford, MA, USA) solid phase extraction (SPE) cartridges. Supernatants were allowed to elute through the cartridge via gravity. Finally, 100 uL of eluent was diluted using 100 uL of 1% formic acid in water. Extracts were further diluted with the extracted method blank (corn oil) to bring the concentrations to within the calibration range. Sample extracts were analyzed using the same LC/MS/MS method outlined for PFHxSA plasma and liver in Text S4. Samples were quantitated against a matrix-matched calibration curve containing a minimum of 5 points spanning 50-500 ng/mL in extract. […]
verification (CCV) sample and laboratory control sample (LCS) were injected at the start and end of each analytical batch to confirm the validity of the calibration curve and sample quantitation. Acceptance criteria for the CCV and LCS were readback concentrations ± 30% of nominal concentration. The method blank acceptance criterion was a readback concentration of PFHxSA < 0.5x the limit of quantitation (LOQ) of the method. The LOQ was 50 ng/mL in the extract. Samples were injected in sequential order (e.g., r01, r02, r03, …, etc.); no duplicate injections of samples were performed.
Assessment of the stability of PFHxSA in corn oil was conducted using the same extraction method as for dosing solutions. Analysis of PFHxSA in corn oil was conducted using the same LC/MS/MS conditions as PFHxSA dosimetry in plasma and liver (Text S4). The average ratio of PFHxSA peak area to PFOSA internal standard peak area for three replicate injections was divided by the average ratio for Day 0 to derive the percentage of recovery for a given day. No calibration curve was generated for the Stability Assessment. For quality control, the extraction blank needed to have a PFHxSA signal that was ≤ 10% the peak area of PFHxSA on Day 0; the daily LCS was acceptable with a PFHxSA/PFOSA area ratio within 30% of the Day 0 LCS. […]

In another data set the test system is Sprague Dawley rats. Briefly: 5-day repeat dose in vivo study, survival. More on the design: species or system rat. The following applies: 0.01 to 100 mg/kg/day oral gavage once daily for five days; both sexes. The source says: The plasma and liver samples for this investigation were provided by Mutlu et al.. The study design, including detailed descriptions of animal handling, procedures for dosing, clinical observations, termination, and collection of tissues, is reported elsewhere and is consistent with the ARRIVE guidelines. Briefly, male and female Sprague Dawley (SD) rats (Crl:CD(SD)) (n = 48/sex, 96 total) were purchased from Charles River Laboratory (Raleigh, NC, USA) and allowed to acclimate for ≥5 days before initial dosing. Rats were 8–10 weeks old at the time of exposure. PFHxSA dosing solutions in corn oil were prepared on Day 0 and used over the course of the study. Rats of both sexes (n = 5/sex, dose, and time point, plus eight vehicle controls per sex) were dosed by oral gavage (5 mL/kg body weight) once daily for five days. […] The formulation concentrations decreased from 100 mg/kg/day at half-log10 intervals until the lowest dose level, which was a full log10 interval below the next higher dose, giving eight dose levels (0.01 to 100 mg/kg/day or 0.025 µmol/kg/day to 250 µmol/kg/day) in addition to vehicle controls. Doses were administered in randomized order within ± 1 h on each day of dosing. […] Rats were euthanized 24 h after the last dose. […]

In data set [2] the test system is cytochrome P450 (CYP450) hepatic metabolism enzyme isoforms 3A2, 4A1, and 2J4. More on the design: method as in Mutlu et al. [55]. The following applies: ref Mutlu et al. [55], cited from earlier work.

For `NS(=O)(=O)C(F)(F)C(F)(F)C(F)(F)C(F)(F)C(F)(F)C(F)(F)F` [PFHxSA, Perfluorohexanesulfonamide], the “Stability of corn oil solutions” value in data set [1] (2 µg/mL to 20,000 µg/mL, within ±30% of the initial value, up to 14 days, room and refrigerated (4 °C) temperatures) is recorded as “stable”. Further, in data set [1] (corn oil 2 µg/mL, 4 °C), the “MeanD14 (mean of percent recoveries for Day 14 replicates)” value is reported as 79.3%; the “Replicate percent recoveries, Day 5” value is 90.8% and 94.3% and 97.9%; the “Replicate percent recoveries, Day 7” value was 78.3% and 79.5% and 79.3%; the “Replicate percent recoveries, Day 14” value was 77.3% and 77.6% and 83.0%. In data set [1] (corn oil 2 µg/mL, RT), the “MeanD14 (mean of percent recoveries for Day 14 replicates)” value worked out at 97.3%; the “Replicate percent recoveries, Day 5” value was 97.4% and 96.8% and 96.1%; the “Replicate percent recoveries, Day 7” value is 81.3% and 85.5% and 80.6%; the “Replicate percent recoveries, Day 14” value was 97.0% and 93.3% and 102%. Besides, in data set [1] (corn oil 20,000 µg/mL, 4 °C), the “MeanD14 (mean of percent recoveries for Day 14 replicates)” value is given as 128%; the “Replicate percent recoveries, Day 5” value is 110% (2×) and 119%; the “Replicate percent recoveries, Day 7” value is 119% and 118% and 116%; the “Replicate percent recoveries, Day 14” value was 130% and 126% and 128%. For the same molecule, in data set [1] (corn oil 20,000 µg/mL, RT), the “MeanD14 (mean of percent recoveries for Day 14 replicates)” value amounted to 88.6%; the “Replicate percent recoveries, Day 5” value is 97.3% and 103% and 98.1%; the “Replicate percent recoveries, Day 7” value is 90.1% and 94.3% and 88.4%; the “Replicate percent recoveries, Day 14” value was 88.0% and 87.2% and 90.5%. Besides, in data set [1] (corn oil, oil or lipid), the solubility came out at 20 mg/mL (≈ 50.1 mM). For the same molecule, in the data set with Sprague Dawley rats, the Survival result is recorded as “All rats survived to termination”. In data set [2] (rat liver), the “Increase in mRNAs of CYP450 isoforms 3A2, 4A1, and 2J4” value is given as no less than 2 fold. The “Lowest observed transcriptional effect level, CYP450 isoforms 3A2, 4A1, and 2J4” value in data set [2] is 30 mg/kg/day.

As usually defined, the solubility is the dissolved amount per volume that the medium holds. A higher solubility goes with much dissolved substance.
